# Test results: patent US10493070B2 (priority 2016, dated 2019)
# Test system: recombinant NL4-3 virus (NLRluc, Renilla luciferase in nef, Gag P373S)
# Test: HIV cell culture assay (Renilla luciferase reporter virus in MT-2 cells)
# Format: cell-based
# Details: Renilla, NL43, read-out: 10% FBS EC50, 10% FBS, class symbols A/B/C
# Protocol: MT-2 cells and 293T cells were obtained from the NIH AIDS Research and Reference Reagent Program. MT-2 cells were propagated in RPMI 1640 media supplemented with 10% heat inactivated fetal bovine serum, […]. The 293T cells were propagated in DMEM media supplemented with 10% heat inactivated fetal bovine serum (FBS), 100 units/ml penicillin G and 100 μg/ml streptomycin. The proviral DNA clone of NL4-3 was obtained from the NIH AIDS Research and Reference Reagent Program. A recombinant NL4-3 virus, in which a section of the nef gene from NL4-3 was replaced with the Renilla luciferase gene, was used as a reference virus. In addition, residue Gag P373 was converted to P373S. Briefly, the recombinant virus was prepared by transfection of the altered proviral clone of NL4-3. Transfections were performed in 293T cells using LipofectAMINE PLUS from Invitrogen (Carlsbad, Calif.), according to manufacturer's instruction. The virus was titered in MT-2 cells using luciferase enzyme activity as a marker. Luciferase was quantitated using the Dual Luciferase kit from Promega (Madison, Wis.), with modifications to the manufacturer's protocol. The diluted Passive Lysis solution was pre-mixed with the re-suspended Luciferase Assay Reagent and the re-suspended Stop & Glo Substrate (2:1:1 ratio). Fifty (50) μL of the mixture was added to each aspirated well on assay plates and luciferase activity was measured immediately on a Wallac TriLux (Perkin-Elmer). Antiviral activities of inhibitors toward the recombinant virus were quantified by measuring luciferase activity in cells infected for 4-5 days with NLRluc recombinants in the presence serial dilutions of the inhibitor. Table 16 is the key for the data in Table 17.
row,SMILES,EC50
1,CC1(C)C(c2ccc(C(=O)O)cc2)=CC[C@]2(C)CN(C(=O)c3ccc(C(=O)N4CC=C5C(C)(C)C(c6ccc(C(=O)O)cc6)=CC[C@]5(C)C4)s3)CC=C12 [Example 62],> 3 µM
2,CC1(C)C(c2ccc(C(=O)O)cc2)=CC[C@]2(C)CN(C(=O)c3ccc4[nH]cnc4c3)CC=C12 [Example 40],> 3 µM
3,CC1(C)C(c2ccc(C(=O)O)cc2)=CC[C@]2(C)CN(C(=O)[C@H]3C[C@@H]4C=C[C@H]3C4)CC=C12 [Example A86],> 3 µM
4,CC1(C)C(c2ccc(C(=O)O)cc2)=CC[C@]2(C)CN(C(=O)c3ccccc3C(=O)N3CCS(=O)(=O)CC3)CC=C12 [Example 67],> 3 µM
5,"CN1CCC2C(C)(C)[C@@H](c3ccc(C(=O)O)cc3)CC[C@]2(C)C1 (single isomer, unassigned) [Example 91]",> 3 µM
6,CC1(C)C2CCN(C(=O)c3ccccc3-c3nc4ccccc4[nH]3)C[C@@]2(C)CC[C@@H]1c1ccc(C(=O)O)cc1 (some centres unmarked) [Example 85],< 0.5 µM
7,Cc1nc2cc(C(=O)N3CC=C4C(C)(C)C(c5ccc(C(=O)O)cc5)=CC[C@]4(C)C3)ccc2[nH]1 [Example 41],> 3 µM
8,CC(C)C[C@@H](NC(=O)OC(C)(C)C)C(=O)N1CCC(C(=O)N2CC=C3C(C)(C)[C@@H](c4ccc(C(=O)O)cc4)CC[C@]3(C)C2)(c2ccccc2)CC1 [Example 88],< 0.5 µM
9,CC1(C)C(c2ccc(C(=O)O)cc2)=CC[C@]2(C)CN(C(=O)c3cccc(F)c3F)CC=C12 [Example 4],> 3 µM
10,CC1(C)C(c2ccc(C(=O)O)cc2)=CC[C@]2(C)CN(c3cc(F)cc(-c4nn[nH]n4)c3)CC=C12 [Example B7],> 3 µM
11,CC1(C)C(c2ccc(C(=O)O)cc2)=CC[C@]2(C)CN(C(=O)c3ccccc3-c3nc4c(F)cccc4[nH]3)CC=C12 [Example A266],< 0.5 µM
12,CC1(C)C(c2ccc(C(=O)O)cc2)=CC[C@]2(C)CN(C(=O)CN3CCS(=O)(=O)CC3)CC=C12 [Example 37],> 3 µM
13,COc1ccc(OC)c2[nH]c(-c3ccccc3C(=O)N3CC=C4C(C)(C)C(c5ccc(C(=O)O)cc5)=CC[C@]4(C)C3)nc12 [Example A299],< 0.5 µM
14,"CC1(C)C(c2ccc(C(=O)O)cc2)=CC[C@]2(C)CN(c3ccc(C(=O)O)cc3)CC=C12 [Example B10, (S)-4,4′-(5,5,8a-trimethyl-3,5,8,8a-tetrahydroisoquinoline-2,6(1H)-diyl)dibenzoic acid]",> 3 µM
15,CC1(C)C(c2ccc(C(=O)O)cc2)=CC[C@]2(C)CN(C(=O)c3ccccc3C(=O)N3CC=C4C(C)(C)C(c5ccc(C(=O)O)cc5)=CC[C@]4(C)C3)CC=C12 [Example 60],0.5 to 3 µM
16,CC1(C)C(c2ccc(C(=O)O)cc2)=CC[C@]2(C)CN(C(=O)c3cccc(N4CCOCC4)c3)CC=C12 [Example 27],> 3 µM
17,CC1(C)C(c2ccc(C(=O)O)cc2)=CC[C@]2(C)CN(C(=O)c3ccccc3-c3nc4cc(C(=O)O)ccc4n3Cc3ccccc3)CC=C12 [Example A290],> 3 µM
18,CC1(C)C(c2ccc(C(=O)O)cc2)=CC[C@]2(C)CN(C(=O)c3ccccc3-c3nc4ccccc4n3CCN3CCS(=O)(=O)CC3)CC=C12 [Example 81],0.5 to 3 µM
19,Cc1nn(-c2ccccc2)nc1C(=O)N1CC=C2C(C)(C)C(c3ccc(C(=O)O)cc3)=CC[C@]2(C)C1 [Example A40],> 3 µM
20,CC1(C)C(c2ccc(C(=O)O)cc2)=CC[C@]2(C)CN(C(=O)c3ccc(N4CCOCC4)cc3)CC=C12 [Example 28],> 3 µM
21,CN1CCN(c2cccc(C(=O)N3CC=C4C(C)(C)C(c5ccc(C(=O)O)cc5)=CC[C@]4(C)C3)c2)CC1 [Example 29],> 3 µM
22,CC1(C)C(c2ccc(C(=O)O)cc2)=CC[C@]2(C)CN(C(=O)c3ccccc3-c3nc4ccc(F)c(F)c4o3)CC=C12 [Example A314],0.5 to 3 µM
23,"CC1(C)C(c2ccc(C(=O)O)cc2)=CC[C@]2(C)CN(C(=O)c3ccccc3)CC=C12 [Example 1, (S)-4-(2-benzoyl-5,5,8a-trimethyl-1,2,3,5,8,8a-hexahydroisoquinolin-6-yl)benzoic acid]",> 3 µM
24,CC1(C)C(c2ccc(C(=O)O)cc2)=CC[C@]2(C)CN(C(=O)C3(c4ccccc4F)CCCC3)CC=C12 [Example A1],> 3 µM

# Same assay, conditions: Renilla, NL43, read-out: 10% FBS EC50, 10% FBS, numeric values
row,SMILES,EC50
1,CC1(C)C(c2ccc(C(=O)O)cc2)=CC[C@]2(C)CN(c3nc(C(=O)O)cs3)CC=C12 [Example B16],1.48 µM
2,CC(C)[C@H]1CC[C@H](C)C[C@@H]1OC(=O)c1ccccc1C(=O)N1CC=C2C(C)(C)C(c3ccc(C(=O)O)cc3)=CC[C@]2(C)C1 [Example A36],0.38 µM
3,C[C@@H](OC(C)(C)C)[C@H](NC(=O)OC(C)(C)C)C(=O)N1CCC(C(=O)N2CC=C3C(C)(C)C(c4ccc(C(=O)O)cc4)=CC[C@]3(C)C2)(c2ccccc2)CC1 [Example A185],0.123 µM
4,CN1Cc2c(ccc3nc(-c4ccccc4C(=O)N4CC=C5C(C)(C)C(c6ccc(C(=O)O)cc6)=CC[C@]5(C)C4)[nH]c23)C(c2ccccc2)C1 (some centres unmarked) [Example 100],2.81 µM
5,"CC1(C)C(c2ccc(C(=O)O)cc2)=CC[C@]2(C)CN(C3CCC(CN)(c4ccccc4)CC3)CC=C12 (stereo partly drawn) [Example C3, (S)-4-(2-(4-(aminomethyl)-4-phenylcyclohexyl)-5,5,8a-trimethyl-1,2,3,5,8,8a-hexahydroisoquinolin-6-yl)benzoic acid]",0.15 µM
6,CC1(C)C(c2ccc(C(=O)O)cc2)=CC[C@]2(C)CN(C(=O)c3c(-c4ccccc4)nc4ccccn34)CC=C12 [Example A91],0.711 µM
7,CC1(C)C(c2ccc(C(=O)O)cc2)=CC[C@]2(C)CN(C(=O)c3ccc(C(=O)N4CC=C5C(C)(C)C(c6ccc(C(=O)O)cc6)=CC[C@]5(C)C4)cc3)CC=C12 [Example 59],1.05 µM
8,CC1(C)C(c2ccc(C(=O)O)cc2)=CC[C@]2(C)CN(C(=O)c3ccccc3-c3nc4ccccc4n3C3CCN(Cc4ccccc4)CC3)CC=C12 [Example A280],0.55 µM
9,CC1(C)C(c2ccc(C(=O)O)cc2)=CC[C@]2(C)CN(C(=O)c3ccccc3-c3nc4c(Cl)cccc4[nH]3)CC=C12 [Example A270],0.014 µM
10,CC1(C)C(c2ccc(C(=O)O)cc2)=CC[C@]2(C)CN(C(=O)c3ccccc3-n3cccn3)CC=C12 [Example A58],1.85 µM
11,"CC1(C)C(c2ccc(C(=O)O)cc2)=CC[C@]2(C)CN(c3cc(NC(=O)CCN4CCS(=O)(=O)CC4)cc(-c4nnn(CCN5CCS(=O)(=O)CC5)n4)c3)CC=C12 [Example B4, (S)-4-(2-(3-(2-(2-(1,1-dioxidothiomorpholino)ethyl)-2H-tetrazol-5-yl)-5-(3-(1,1-dioxidothiomorpholino)propanamido)phenyl)-5,5,8a-trimethyl-1,2,3,5,8,8a-hexahydroisoquinolin-6-yl)benzoic acid]",1.7 µM
12,"CC1(C)C(c2ccc(C(=O)O)cc2)=CC[C@]2(C)CN(c3ncnc(NCCCN4CCS(=O)(=O)CC4)n3)CC=C12 [Example 74, (S)-4-(2-(4-((3-(1,1-dioxidothiomorpholino)propyl)amino)-1,3,5-triazin-2-yl)-5,5,8a-trimethyl-1,2,3,5,8,8a-hexahydroisoquinolin-6-yl)benzoic acid]",0.34 µM
13,CCOc1cccc2cc(C(=O)N3CC=C4C(C)(C)C(c5ccc(C(=O)O)cc5)=CC[C@]4(C)C3)oc12 [Example A46],1.32 µM

# Same assay, conditions: read-out: 10% FBS EC50, 10% FBS, numeric values
row,SMILES,EC50
1,CN1Cc2c(ccc3nc(-c4ccccc4C(=O)N4CC=C5C(C)(C)C(c6ccc(C(=O)O)cc6)=CC[C@]5(C)C4)[nH]c23)C(c2ccccc2)C1 (some centres unmarked) [Example 101],2.98 µM
